Test [1] concerns the target T1, His-GST-TVMV-hRIPK1(1-324) (Homo sapiens, UniProt Q13546).
T1 construct: The coding region of human RIPK1(1-324) flanked by NdeI site at 5′ end; made in house; host or cells: Spodoptera frugiperda (Sf9) insect cells, baculovirus
T1 sequence (Q13546 1-324): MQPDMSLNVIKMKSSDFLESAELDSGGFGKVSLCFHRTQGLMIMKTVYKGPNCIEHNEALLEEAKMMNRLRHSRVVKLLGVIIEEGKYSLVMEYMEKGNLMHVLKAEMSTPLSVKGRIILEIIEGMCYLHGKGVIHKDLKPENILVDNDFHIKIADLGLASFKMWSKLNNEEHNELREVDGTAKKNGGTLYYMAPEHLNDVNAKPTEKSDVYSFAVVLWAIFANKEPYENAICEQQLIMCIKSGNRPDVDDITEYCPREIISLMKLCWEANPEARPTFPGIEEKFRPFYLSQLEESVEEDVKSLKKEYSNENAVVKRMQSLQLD
The test can be described thus: RIPK1 HTRF Binding Assay.

Test [2] relates to MLKL phosphorylation in HT29-L23 human colorectal adenocarcinoma cells. The test can be described thus: MLKL Phosphorylation High-Content Assay. The class given is cell-based. In outline: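 IC50 and Ymax obtained by 4-parameter logistic fitting of MLKL phosphorylation, measured as mean circ-ring average intensity ratio from high-content images. Staining used an anti-phospho-S358 MLKL antibody overnight at 4° C., following six-hour cell incubation at 37° C.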

[3] abbreviates: x marks IC50 class <20 nM, read-out: RIPK1 HTRF binding <20 nM.
The mark [4] stands for this setting: Homo sapiens, x marks IC50 class 20-200 nM, read-out: pMLKL cell activity 20-200 nM.
The mark [5] stands for this setting: x marks IC50 class 20-200 nM, read-out: RIPK1 HTRF binding 20-200 nM.
The mark [6] stands for this setting: Homo sapiens, x marks IC50 class >200 nM, read-out: pMLKL cell activity >200 nM.
Where [7] appears, read: Homo sapiens, x marks IC50 class <20 nM, read-out: pMLKL cell activity <20 nM.

Where two headings read alike, the source gives them in different places.

IC50 data for 25 molecules are collected here from patent US10913738B2 (BRISTOL-MYERS SQUIBB COMPANY, priority 2017, dated 2021).

In the case of `Cc1nc(C)c(-c2ccn3nc(N)nc3c2)cc1C(=O)NCc1c(F)cccc1OCC1CCCC1` [Example 180, 5-12-amino-[1,2,4]triazolo[1,5-a]pyridin-7-yl}-N-{[2-(cyclopentylmethoxy)-6-fluorophenyllmethyl}-2,6-dimethylpyridine-3-carboxamide], the IC50 was < 0.02 µM in test [1] (setting [3]) and 0.02 to 0.2 µM in test [2] (setting [4]).
In the case of `Cc1cnc(-c2ccn3nc(N)nc3c2)nc1C(=O)N[C@H](C)c1cc(OC(F)(F)F)ccc1F` [Example 407, (R)-2-(2-amino-[1,2,4]triazolo[1,5-a]pyridin-7-yl)-N-(1-(2-fluoro-5-(trifluoromethoxy)phenyl)ethyl)-5-methylpyrimidine-4-carboxamide], the IC50 in test [1] (setting [5]) and in test [2] (setting [4]) was 0.02 to 0.2 µM each time.
On to `COc1ncc(-c2ccn3nc(N)nc3c2)cc1C(=O)NCc1cc(F)cc(F)c1OC1CC1` [Example 344, 5-(2-amino-[1,2,4]triazolo[1,5-a]pyridin-7-yl)-N-(2-cyclopropoxy-3,5-difluorobenzyl)-2-methoxynicotinamide], for which the IC50 is < 0.02 µM in test [1] (setting [3]) and 0.02 to 0.2 µM in test [2] (setting [4]).
In the case of `Cc1nc(C)c(-c2ccn3nc(N)nc3c2)cc1C(=O)NCCC(C)c1ccccc1` (centres unmarked) [Example 174, 5-{2-amino-[1,2,4]triazolo[1,5-a]pyridin-7-yl}-2,6-dimethyl-N-(3-phenylbutyl)pyridine-3-carboxamide], the IC50 is 0.02 to 0.2 µM in test [1] (setting [5]) and > 0.2 µM in test [2] (setting [6]).
With `Cc1ncc(-c2ccn3nc(N)nc3c2)cc1C(=O)NCc1cc(F)cc(F)c1OCC(C)C` [Example 301, 5-(2-amino-[1,2,4]triazolo[1,5-a]pyridin-7-yl)-N-(3,5-difluoro-2-isobutoxybenzyl)-2-methylnicotinamide], the IC50 in test [1] (setting [3]) is < 0.02 µM; in test [2] (setting [4]), 0.02 to 0.2 µM.
Regarding `COc1ncc(-c2ccn3nc(N)nc3c2)cc1C(=O)NCc1c[nH]nc1-c1ccccc1` [Example 152, 5-{2-amino-[1,2,4]triazolo[1,5-a]pyridin-7-yl}-2-methoxy-N-[(3-phenyl-1H-pyrazol-4-yl)methyl]pyridine-3-carboxamide], the IC50 in test [1] (setting [5]) and in test [2] (setting [4]) was 0.02 to 0.2 µM throughout.
Take `COc1nc(C)c(-c2ccn3nc(N)nc3c2)cc1C(=O)NCc1c(F)cc(F)cc1OCC1CCCC1` [Example 202, 5-{2-amino-[1,2,4]triazolo[1,5-a]pyridin-7-yl}-N-{[2-(cyclopentylmethoxy)-4,6-difluorophenyl]methyl}-2-methoxy-6-methylpyridine-3-carboxamide]: the figures for the IC50 in test [1] (setting [3]) and in test [2] (setting [4]) were < 0.02 µM and 0.02 to 0.2 µM, respectively.
Taken in the same sequence, the figures for `Nc1nc2cc(-c3cnc(N)c(C(=O)NCc4ccccc4OCC4CC4)c3)ccn2n1` [Example 56, 2-Amino-5-{2-amino-[1,2,4]triazolo[1,5-a]pyridin-7-yl}-N-{[2-(cyclopropylmethoxy)phenyl]methyl}pyridine-3-carboxamide] were < 0.02 µM and 0.02 to 0.2 µM.
Regarding `Cc1nc(C)c(-c2ccn3nc(N)nc3c2)cc1C(=O)NCC(O)Cc1ccccc1` (centres unmarked) [Example 173], the figures for the IC50 in test [1] (setting [5]) and in test [2] (setting [6]) were 0.02 to 0.2 µM and > 0.2 µM, respectively.
For `COc1ncc(-c2ccn3nc(N)nc3c2)cc1C(=O)NCc1cc(F)ccc1C(=O)N1CCC(F)(F)C1` [Example 376, 5-(2-amino-[1,2,4]triazolo[1,5-a]pyridin-7-yl)-N-(2-(3,3-difluoropyrrolidine-1-carbonyl)-5-fluorobenzyl)-2-methoxynicotinamide], the IC50 in test [1] (setting [3]) and in test [2] (setting [7]) was < 0.02 µM throughout.
Turning to “5-(2-amino-[1,2,4]triazolo[1,5-a]pyridin-7-yl)-6-chloro-N-(2-flouro-5-(trifluoromethoxy)benzyl)nicotinamide [Example 373]”, the IC50 in test [1] (setting [3]) is < 0.02 µM; in test [2] (x marks IC50 class >200 nM, read-out: pMLKL cell activity >200 nM), > 0.2 µM.
For `COc1ncc(-c2ccn3nc(N)nc3c2)cc1C(=O)NC(C)c1cc(OC(F)(F)F)ccc1F` (single isomer, unassigned) [Example 89-1, 5-{2-amino-[1,2,4]triazolo[1,5-a]pyridin-7-yl}-N-{1-[2-fluoro-5-(trifluoromethoxy)phenyl]ethyl}-2-methoxypyridine-3-carboxamide], the IC50 in test [1] (setting [5]) and in test [2] (setting [4]) was 0.02 to 0.2 µM throughout.
For `COc1ncc(-c2ccn3nc(N)nc3c2)cc1C(=O)NCc1ccc(F)cc1OC1CCCC1` [Example 51, 5-{2-Amino-[1,2,4]triazolo[1,5-a]pyridin-7-yl}-N-{[2-(cyclopentyloxy)-4-fluorophenyl]methyl}-2-methoxypyridine-3-carboxamide], the IC50 in test [1] (setting [3]) is < 0.02 µM; in test [2] (setting [4]) it was 0.02 to 0.2 µM.
Consider `COc1ncc(-c2ccn3nc(N)nc3c2)cc1C(=O)NCc1ccccc1OCC1CCCCC1` [Example 123, 5-{2-amino-[1,2,4]triazolo[1,5-a]pyridin-7-yl}-N-{[2-(cyclohexylmethoxy)phenyl]methyl}-2-methoxypyridine-3-carboxamide], for which the IC50 in test [1] (setting [3]) was < 0.02 µM; in test [2] (setting [4]), 0.02 to 0.2 µM.
On to `COc1ncc(-c2ccn3nc(N)nc3c2)cc1C(=O)NCc1c(Cl)cccc1Oc1ccccc1` [Example 155, 5-{2-amino-[1,2,4]triazolo[1,5-a]pyridin-7-yl}-N-[(2-chloro-6-phenoxyphenyl)methyl]-2-methoxypyridine-3-carboxamide], for which the IC50 in test [1] (setting [3]) and in test [2] (setting [7]) was < 0.02 µM each time.
Consider `Cc1ncc(-c2ccn3nc(N)nc3c2)cc1C(=O)NCc1cc(F)ccc1-c1ccn(C)n1` [Example 298, 5-(2-amino-[1,2,4]triazolo[1,5-a]pyridin-7-yl)-N-(5-fluoro-2-(1-methyl-1H-pyrazol-3-yl)benzyl)-2-methylnicotinamide], for which the IC50 was 0.02 to 0.2 µM in test [1] (setting [5]) and > 0.2 µM in test [2] (setting [6]).
For the molecule `COc1ncc(-c2ccn3nc(N)nc3c2)cc1C(=O)NCc1cc(F)cc(F)c1OC1CCCOC1` (centres unmarked) [Example 342, 5-(2-amino-[1,2,4]triazolo[1,5-a]pyridin-7-yl)-N-(3,5-difluoro-2-((tetrahydro-2H-pyran-3-yl)oxy)benzyl)-2-methoxynicotinamide], the IC50 in test [1] (setting [3]) is < 0.02 µM; in test [2] (setting [4]), 0.02 to 0.2 µM.
For the molecule `COc1ncc(-c2ccn3nc(N)nc3c2)cc1C(=O)N1CCCC(Sc2ccccc2)C1` (centres unmarked) [Example 424, (5-(2-amino-[1,2,4]triazolo[1,5-a]pyridin-7-yl)-2-methoxypyridin-3-yl)(3-(phenylthio)piperidin-1-yl)methanone], the IC50 in test [1] (setting [5]) and in test [2] (setting [4]) was 0.02 to 0.2 µM in each case.
Turning to `COc1ncc(-c2ccn3nc(N)nc3c2)cc1C(=O)N[C@H]1CCN(Cc2ccccc2)C1` [Example 159, 5-{2-amino-[1,2,4]triazolo[1,5-a]pyridin-7-yl}-N-[(3S)-1-benzylpyrrolidin-3-yl]-2-methoxypyridine-3-carboxamide], the IC50 in test [1] (x marks IC50 class >200 nM, read-out: RIPK1 HTRF binding >200 nM) is > 0.2 µM; in test [2] (setting [4]), 0.02 to 0.2 µM.
As for `COc1ncc(-c2ccn3nc(N)nc3c2)cc1C(=O)NCc1c(F)cccc1OCC1CCCC1` [Example 126, 5-{2-amino-[1,2,4]triazolo[1,5-a]pyridin-7-yl}-N-{[2-(cyclopentylmethoxy)-6-fluorophenyl]methyl}-2-methoxypyridine-3-carboxamide], the IC50 in test [1] (setting [3]) was < 0.02 µM; in test [2] (setting [4]), 0.02 to 0.2 µM.
In the case of `COc1nc(C)c(-c2ccn3nc(N)nc3c2)cc1C(=O)NCc1ncccc1OC1CCCC1` [Example 213, 5-{2-amino-[1,2,4]triazolo[1,5-a]pyridin-7-yl}-N-{[3-(cyclopentyloxy)pyridin-2-yl]methyl}-2-methoxy-6-methylpyridine-3-carboxamide], the IC50 in test [1] (setting [3]) and in test [2] (setting [7]) was < 0.02 µM in each case.
Turning to `COc1ncc(-c2ccn3nc(N)nc3c2)cc1C(=O)NCc1ccccc1CN1CCOCC1` [Example 105, 5-{2-amino-[1,2,4]triazolo[1,5-a]pyridin-7-yl}-2-methoxy-N-({2-[(morpholin-4-yl)methyl]phenyl}methyl)pyridine-3-carboxamide], the results for the IC50 in test [1] (setting [3]) and in test [2] (setting [6]) were < 0.02 µM and > 0.2 µM, respectively.
With `Cc1ncc(C(=O)NCc2cc(F)cc(F)c2OCC2CC2)cc1-c1ccn2nc(N)nc2c1` [Example 260, 5-{2-amino-[1,2,4]triazolo[1,5-a]pyridin-7-yl}-N-{[2-(cyclopropylmethoxy)-3,5-difluorophenyl]methyl}-6-methylpyridine-3-carboxamide], the IC50 in test [1] (setting [3]) and in test [2] (setting [7]) was < 0.02 µM in each case.
Turning to `COc1nc(C)c(-c2ccn3nc(N)nc3c2)cc1C(=O)NCc1ccccc1OCC(F)(F)F` [Example 332, 5-(2-amino-[1,2,4]triazolo[1,5-a]pyridin-7-yl)-2-methoxy-6-methyl-N-(2-(2,2,2-trifluoroethoxy)benzyl)nicotinamide], the IC50 was < 0.02 µM in test [1] (setting [3]) and 0.02 to 0.2 µM in test [2] (setting [4]).
The like results for `Cc1ncc(-c2ccn3nc(N)nc3c2)cc1NC(=O)c1cnn(Cc2ccccc2)c1` [Example 412, N-(5-(2-amino-[1,2,4]triazolo[1,5-a]pyridin-7-yl)-2-methylpyridin-3-yl)-1-benzyl-1H-pyrazole-4-carboxamide] were, in that order, < 0.02 µM and 0.02 to 0.2 µM.
